Measured values from the supplement of paper PMC12137928.
Structures can show the parent of a compound that is named as a salt.

Test system: HCT116
Conditions: 72 h
Summary of the method: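 In 1536-well plates, 250 HCT116 cells per well were seeded and left for 5 h to attach. Luminescence from CellTiter-Glo was set against vehicle (0%) and positive control (-100%), and pattern correction was applied. IC50 and maximal efficacy come from four-parameter Hill fitting.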

SMILES	IC50 cell viability (ICRF193 0 nM) [µM]	IC50 cell viability (ICRF193 200 nM) [µM]
Clc1ccccc1CN1CCc2sccc2C1 [Ticlopidine hydrochloride]	> 45.8	> 45.8
CN(C)c1cc(NC(=O)CNC(C)(C)C)c(O)c2c1C[C@H]1C[C@H]3[C@H](N(C)C)C(O)=C(C(N)=O)C(=O)[C@@]3(O)C(O)=C1C2=O [Tigecycline]	> 45.8	> 45.8
CC[C@H]1OC(=O)C[C@@H](O)[C@H](C)[C@@H](O[C@@H]2O[C@H](C)[C@@H](O)[C@H](N(C)C)[C@H]2O)[C@@H](CCN2CCCCC2)C[C@@H](C)C(=O)/C=C/C(C)=C/[C@@H]1CN1CCCCC1 [Tildipirosin]	> 45.8	> 45.8
CCNC1(c2cccs2)CCCCC1=O (centres undefined) [Tiletamine Hydrochloride]	> 45.8	> 45.8
Cc1nc(C2CCCCC2)c(-c2ccc(S(N)(=O)=O)c(F)c2)o1 [Tilmacoxib]	> 45.8	> 45.8
COC1CC(=C(c2cccs2)c2cccs2)C[N+](C)(C)C1 (centres undefined) [Timepidium bromide]	> 45.8	> 45.8
CCS(=O)(=O)CCn1c([N+](=O)[O-])cnc1C [Tinidazole]	> 45.8	> 45.8
C[N+]1(C)[C@@H]2C[C@@H](OC(=O)C(O)(c3cccs3)c3cccs3)C[C@H]1[C@@H]1O[C@@H]12 [Tiotropium (Bromide)]	> 45.8	> 45.8
N=C1CCCN1Cc1[nH]c(=O)[nH]c(=O)c1Cl [Tipiracil]	> 45.8	> 45.8
C[N+]12CCCCC1CCC(=C(c1cccs1)c1cccs1)C2 (centres undefined) [Tiquizium bromide]	> 45.8	> 45.8
COc1ccc(CNCC(O)COc2ccc3[nH]c(=O)ccc3c2)cc1OC (centres undefined) [Toborinone]	> 45.8	> 45.8
NC[C@H]1O[C@H](O[C@H]2[C@H](O)[C@@H](O[C@H]3O[C@H](CO)[C@@H](O)[C@H](N)[C@H]3O)[C@H](N)C[C@@H]2N)[C@H](N)C[C@@H]1O [Tobramycin]	> 45.8	> 45.8
Cc1ccc(C(C)OC(=O)C2(C)CCC(C(=O)O)C2(C)C)cc1 (centres undefined) [Tocanfil]	> 45.8	> 45.8
CC1=C(/C=C/C(C)=C/C=C/C(C)=C/C(=O)Oc2c(C)c(C)c3c(c2C)CCC(C)(CCCC(C)CCCC(C)CCCC(C)C)O3)C(C)(C)CCC1 (centres undefined) [Tocoretinate]	> 45.8	> 45.8
CCOC(=O)NNc1nncc2ccccc12 [Todralazine hydrochloride]	> 45.8	> 45.8
CCC1C(C)=NN=C(c2ccc(OC)c(OC)c2)c2cc(OC)c(OC)cc21 (centres undefined) [Tofisopam]	> 45.8	> 45.8
CCc1ccc(Cc2ccc3c(c2)[C@]2(OC3)O[C@H](CO)[C@@H](O)[C@H](O)[C@H]2O)cc1 [Tofogliflozin (hydrate)]	> 45.8	> 45.8
Cc1cccc(N(C)C(=S)Oc2ccc3c(c2)C2CCC3C2)c1 (centres undefined) [Tolciclate]	> 45.8	> 45.8
Cc1cccc(N(C)C(=S)Oc2ccc3ccccc3c2)c1 [Tolnaftate]	> 45.8	> 45.8

SMILES	IC50 cell viability (ICRF193 0 nM) [µM]	IC50 cell viability (ICRF193 200 nM) [µM]
Cc1ccc(C(=O)C(C)CN2CCCCC2)cc1 (centres undefined) [Tolperisone hydrochloride]	> 45.8	> 45.8
CC1(C)O[C@@H]2[C@@H](CO[C@@]3(COS(N)(=O)=O)OC(C)(C)O[C@@H]23)O1 [Topiramate]	> 45.8	> 45.8
N#Cc1cc(-c2n[nH]c(-c3ccncc3)n2)ccn1 [Topiroxostat]	> 45.8	> 45.8
Cc1cccc(Nc2ccncc2S(=O)(=O)NC(=O)NC(C)C)c1 [Torsemide]	> 45.8	> 45.8
COc1ccc(/C=C/C(=O)Nc2ccccc2C(=O)O)cc1OC [Tranilast]	> 45.8	> 45.8
CC1(C)[C@H](C=C(Cl)Cl)[C@H]1C(=O)OCc1c(F)c(F)cc(F)c1F [Transfluthrin]	> 45.8	> 45.8
N[C@@H]1C[C@H]1c1ccccc1 [Tranylcypromine hydrochloride]	> 45.8	> 45.8
CC(=O)O[C@H]1CC[C@H]2[C@@H]3CCC4=CC(=O)CCC4=C3C=C[C@]12C [Trenbolone (acetate)]	> 45.8	> 45.8
CS(=O)(=O)OC[C@H](O)[C@@H](O)COS(C)(=O)=O [Treosulfan]	> 45.8	> 45.8
CCOc1cc(OCC)c(C(=O)CCC(=O)O)cc1OCC [Trepibutone]	> 45.8	> 45.8
CC(=O)OCC(COC(C)=O)OC(C)=O [Triacetin]	> 45.8	> 45.8
CC(C)(C)CC(=O)OCC(=O)[C@@]12OC(C)(C)O[C@@H]1C[C@H]1[C@@H]3CCC4=CC(=O)C=C[C@]4(C)[C@@]3(F)[C@@H](O)C[C@@]12C [Triamcinolone hexacetonide]	> 45.8	> 45.8
C[C@]12C=CC(=O)C=C1CC[C@H]1[C@@H]3C[C@@H](O)[C@](O)(C(=O)CO)[C@@]3(C)C[C@H](O)[C@@]12F [Triamcinolone]	> 45.8	> 45.8
O=C(Nc1ccc(Br)cc1)c1cc(Br)cc(Br)c1O [Tribromsalan]	> 45.8	> 45.8
COP(=O)(OC)C(O)C(Cl)(Cl)Cl (centres undefined) [Trichlorfon]	> 45.8	> 45.8
NS(=O)(=O)c1cc2c(cc1Cl)NC(C(Cl)Cl)NS2(=O)=O (centres undefined) [Trichlormethiazide]	> 45.8	> 45.8
O=C(O)C(Cl)(Cl)Cl [Trichloroacetic acid]	> 45.8	> 45.8
CC[N+](CC)(CC)CCC(O)(c1ccccc1)C1CCCCC1 (centres undefined) [Tridihexethyl chloride]	> 45.8	> 45.8

Second part, the compound after the results:

IC50 cell viability (ICRF193 0 nM) [µM]	IC50 cell viability (ICRF193 200 nM) [µM]	SMILES
> 45.8	> 45.8	C#C[C@]1(O)CC[C@H]2[C@@H]3[C@H](C)CC4=C(CCC(=O)C4)[C@H]3CC[C@@]21C [Tibolone]
> 45.8	> 45.8	CC1(C)S[C@@H]2[C@H](NC(=O)[C@H](C(=O)O)c3ccsc3)C(=O)N2[C@H]1C(=O)O [Ticarcillin sodium]
> 45.8	> 45.8	O=P(O)(O)C(Sc1ccc(Cl)cc1)P(=O)(O)O [Tiludronate disodium salt hydrate]
> 45.8	> 45.8	CCOC(=O)c1c(N)sc2c1CCN(Cc1ccccc1)C2 [Tinoridine]
> 45.8	> 45.8	CC(S)C(=O)NCC(=O)O (centres undefined) [Tiopronin]
> 45.8	> 45.8	CCCOc1ccc2nc(NC(=O)OC)sc2c1 [Tioxidazole]
> 45.8	> 45.8	CCC[C@@]1(CCc2ccccc2)CC(O)=C([C@H](CC)c2cccc(NS(=O)(=O)c3ccc(C(F)(F)F)cn3)c2)C(=O)O1 [Tipranavir]
> 45.8	> 45.8	CCCCS(=O)(=O)N[C@@H](Cc1ccc(OCCCCC2CCNCC2)cc1)C(=O)O [Tirofiban hydrochloride monohydrate]
> 45.8	> 45.8	Clc1ccc2nsnc2c1NC1=NCCN1 [Tizanidine hydrochloride]
> 45.8	> 45.8	Cc1cccc(C)c1NC(=O)C(C)N (centres undefined) [Tocainide hydrochloride]
> 45.8	> 45.8	C[C@@H]1CCN(C(=O)CC#N)C[C@@H]1N(C)c1ncnc2[nH]ccc12 [Tofacitinib]
> 45.8	> 45.8	Cc1ccc(S(=O)(=O)NC(=O)NN2CCCCCC2)cc1 [Tolazamide]
> 45.8	> 45.8	c1ccc(CC2=NCCN2)cc1 [Tolazoline hydrochloride]
> 45.8	> 45.8	CCCCNC(=O)NS(=O)(=O)c1ccc(C)cc1 [Tolbutamide]
> 45.8	> 45.8	Cc1cccc(N(C)C(=S)Oc2ccc3c(c2)CCC3)c1 [Tolindate]
> 45.8	> 45.8	Cc1ccc(C(=O)c2ccc(CC(=O)O)n2C)cc1 [Tolmetin sodium dihydrate]
> 45.8	> 45.8	Cc1ccc(O)c([C@H](CCN(C(C)C)C(C)C)c2ccccc2)c1 [Tolterodine]
> 45.8	> 45.8	Cc1ccccc1C(=O)Nc1ccc(C(=O)N2CCCC(O)c3cc(Cl)ccc32)c(C)c1 (centres undefined) [Tolvaptan]
> 45.8	> 45.8	CCN(CC)CC(=O)Nc1c(C)cccc1C(=O)OC [Tolycaine]
> 45.8	> 45.8	NC1CCN(c2nc3c(cc2F)c(=O)c(C(=O)O)cn3-c2ccc(F)cc2F)C1 (centres undefined) [Tosufloxacin toluenesulfonic acid]
> 45.8	> 45.8	O=c1n(CCCN2CCN(c3cccc(Cl)c3)CC2)nc2ccccn12 [Trazodone hydrochloride]
> 45.8	> 45.8	Cn1c(=O)cc(N2CCC[C@@H](N)C2)n(Cc2cc(F)ccc2C#N)c1=O [Trelagliptin succinate]
> 45.8	> 45.8	CC1(C)O[C@@H]2C[C@H]3[C@@H]4CCC5=CC(=O)C=C[C@]5(C)[C@@]4(F)[C@@H](O)C[C@]3(C)[C@]2(C(=O)CO)O1 [Triamcinolone acetonide]
> 45.8	> 45.8	CC(=O)OCC(=O)[C@@]1(O)[C@H](OC(C)=O)C[C@H]2[C@@H]3CCC4=CC(=O)C=C[C@]4(C)[C@@]3(F)[C@@H](O)C[C@@]21C [Triamcinolone diacetate]
> 45.8	> 45.8	CCCCCCCC(=O)OCC(COC(=O)CCCCCCC)OC(=O)CCCCCCC [Tricaprylin]
